# Patent publication US12655107B2 (The United States of America, as represented by the …, priority 2018, dated 2026)
# Several values for one entry are separate records, joined by “and”; a condition that tells them apart may be missing. Equal values may be shown once.
# Tests used:
# Top1 = target: T1, Top1 (Homo sapiens, UniProt P11387); assay: Top1-mediated DNA cleavage assay; type: biochemical; conditions: for Top1 cleavage: inhibition relative to 1 μM CPT, Table 6
# T1 sequence (P11387 1-765): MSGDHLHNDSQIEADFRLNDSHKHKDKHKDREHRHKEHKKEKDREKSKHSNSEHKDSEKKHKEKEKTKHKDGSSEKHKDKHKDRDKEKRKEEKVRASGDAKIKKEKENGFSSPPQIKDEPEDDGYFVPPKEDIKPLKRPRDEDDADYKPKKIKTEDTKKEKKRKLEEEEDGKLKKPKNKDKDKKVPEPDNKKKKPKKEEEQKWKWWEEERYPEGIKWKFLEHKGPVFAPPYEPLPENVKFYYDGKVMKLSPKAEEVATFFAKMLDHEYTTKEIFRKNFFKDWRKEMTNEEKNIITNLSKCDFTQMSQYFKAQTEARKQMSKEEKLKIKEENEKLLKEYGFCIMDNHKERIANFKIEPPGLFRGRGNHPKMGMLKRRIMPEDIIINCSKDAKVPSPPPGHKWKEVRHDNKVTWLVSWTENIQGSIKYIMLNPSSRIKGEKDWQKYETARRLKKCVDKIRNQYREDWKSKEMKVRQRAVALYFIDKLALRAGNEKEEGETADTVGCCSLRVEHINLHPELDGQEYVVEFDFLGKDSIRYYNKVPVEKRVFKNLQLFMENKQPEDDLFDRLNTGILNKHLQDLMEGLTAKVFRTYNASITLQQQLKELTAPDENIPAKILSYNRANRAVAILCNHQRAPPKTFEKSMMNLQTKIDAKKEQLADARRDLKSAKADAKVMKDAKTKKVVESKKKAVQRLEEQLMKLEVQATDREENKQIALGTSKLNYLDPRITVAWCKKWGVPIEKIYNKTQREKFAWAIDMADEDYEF
# Tdp1 = Tdp1 (Homo sapiens, UniProt Q9NUW8); assay: Tdp1 inhibition gel-based assay; conditions: IC50 Tdp1 (μM), Table 6; replicate values listed in one cell
# Sequence of Tdp1 (Q9NUW8 whole entry): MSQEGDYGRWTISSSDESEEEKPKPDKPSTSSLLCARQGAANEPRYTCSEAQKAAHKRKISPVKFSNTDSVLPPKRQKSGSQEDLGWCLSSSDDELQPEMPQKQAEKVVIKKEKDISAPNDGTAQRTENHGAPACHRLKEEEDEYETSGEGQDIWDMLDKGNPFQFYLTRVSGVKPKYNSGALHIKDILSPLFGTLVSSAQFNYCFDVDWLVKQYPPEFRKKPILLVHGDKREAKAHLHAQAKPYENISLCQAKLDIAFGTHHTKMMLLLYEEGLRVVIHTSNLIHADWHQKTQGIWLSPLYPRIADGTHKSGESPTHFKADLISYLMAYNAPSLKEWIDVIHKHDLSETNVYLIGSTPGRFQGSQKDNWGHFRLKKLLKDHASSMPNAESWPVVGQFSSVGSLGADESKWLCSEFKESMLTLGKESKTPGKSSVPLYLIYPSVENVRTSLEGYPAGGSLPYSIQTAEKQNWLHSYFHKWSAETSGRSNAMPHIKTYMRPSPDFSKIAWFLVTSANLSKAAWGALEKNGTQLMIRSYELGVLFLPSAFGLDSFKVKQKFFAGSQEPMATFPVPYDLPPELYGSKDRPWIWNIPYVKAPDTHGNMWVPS
# Description: The indenoisoquinoline 10 was used as the positive control.
# Gel-based assay. […] Gels were dried and exposed to a PhosphorImager screen (GE Healthcare). Gel images were scanned using a Typhoon FLA 9500 scanner (GE Healthcare), and densitometry analyses were performed using the ImageQuant software (GE Healthcare).
SMILES,Top1 cleavage (Top1),IC50 (Tdp1),"TOP1 inhibition (Top1; graded relative to CPT at 1 μM, Table 7)"
COc1cc2c(OCCCOC(=O)c3ccc(Br)cc3)nc3c4cc5c(cc4ccc3c2cc1OC)OCO5 [NTD-209],+ (+ is 20-50%),> 111 µM,–
COc1cc2ccc3c4cc(OC)c(OC)cc4c(=O)n(CCN(C)C)c3c2cc1O [TWL-131],–,> 111 µM,–
COc1ccc2c(c1)c(=O)n(CCN(C)C)c1c3ccccc3ccc21 [TWL-25],+ (+ is 20-50%),49.4 ± 1.4 µM,–
CN(C)CCn1c(=O)c2c(O)c(O)ccc2c2ccc3cc4c(cc3c21)OCO4 [TWL-218A],+++ (+++ is 75-95%),–,–
COc1cc2c(NCCCn3ccnc3)nc3c4cc5c(cc4ccc3c2cc1OC)OCO5 [NTD-314],+ (+ is 20-50%),> 111 µM,–
COc1cc2ccc3c4cc5c(cc4c(=O)n(CCN(C)C)c3c2cc1OC)OCO5 [TWL-107],–,67.6 µM,–
COc1cc2ccc3c4ccc5c(c4c(=O)n(CCN(C)C)c3c2cc1OC)OCO5 [TWL-189],+ (+ is 20-50%),> 111 µM,–
CN(C)CCn1c(=O)c2ccccc2c2ccc3ccccc3c21 [TWL-5],+ (+ is 20-50%),75.9 µM and > 111 µM (2×) and 64.6 µM,–
COc1cc2c(OCCCOC(=O)c3ccc(Cl)cc3)nc3c4cc5c(cc4ccc3c2cc1OC)OCO5 [NTD-210],+ (+ is 20-50%),> 111 µM,–
COc1cc2c(OCCCN3CCN(C(C)=O)CC3)nc3c4cc5c(cc4ccc3c2cc1OC)OCO5 [NTD-205],++ (++ is 50-75%),> 111 µM,–
COc1cc2c(N(C)C)nc3c4cc5c(cc4ccc3c2cc1OC)OCO5 [NTD-329],–,> 111 µM,–
CCOC(=O)COc1nc2c3cc4c(cc3ccc2c2cc(OC)c(OC)cc12)OCO4 [NTD-334],–,> 111 µM,–
CN(C)CCn1c(=O)c2cc(O)c(O)cc2c2ccc3cc4c(cc3c21)OCO4 [TWL-170],+ (+ is 20-50%),> 111 µM,–
COc1cc2c(OCCCN3CCC3)nc3c4cc5c(cc4ccc3c2cc1OC)OCO5 [NTD-225],0 (0 is inactive),20.6 ± 4.46 µM,–
COc1cccc2c1ccc1c3ccccc3c(=O)n(CCN(C)C)c21 [TWL-26],+ (+ is 20-50%),> 111 µM,–
CN(C)CCn1c(=O)c2c3c(ccc2c2ccc4ccccc4c21)OCO3 [TWL-185],+ (+ is 20-50%),> 111 µM,–
COc1ccc2c(ccc3c4ccccc4c(=O)n(CCN(C)C)c23)c1 [TWL-9],+ (+ is 20-50%),> 111 µM,–
C=CCOc1nc2c3cc4c(cc3ccc2c2cc(OC)c(OC)cc12)OCO4 [NTD-332],–,> 111 µM,–
COc1cc2c(=O)n(CCN(C)C)c3c4cc5c(cc4ccc3c2cc1O)OCO5 [TWL-119],+ (+ is 20-50%),> 111 µM,–
COc1cc2c(OCCCOC(=O)c3ccccc3)nc3c4cc5c(cc4ccc3c2cc1OC)OCO5 [NTD-208],+ (+ is 20-50%),> 111 µM,–
COc1cc2c(=O)n(CCN(C)C)c3c4cc(O)c(O)cc4ccc3c2cc1OC [TWL-164],++ (++ is 50-75%),> 111 µM,–
COc1ccc2c(=O)n(CCN(C)C)c3c4ccccc4ccc3c2c1 [TWL-17],+ (+ is 20-50%),> 111 µM,–
COc1cc2ccc3c4ccccc4c(=O)n(CCN(C)C)c3c2cc1OC [TWL-76H],–,> 111 µM,–
CN(C)CCn1c(=O)c2ccccc2c2ccc3cc4c(cc3c21)OCO4 [TWL-67],+ (+ is 20-50%),> 111 µM,–
CCN1CCN(CCCOc2nc3c4cc5c(cc4ccc3c3cc(OC)c(OC)cc23)OCO5)CC1 [NTD-207],+ (+ is 20-50%),> 111 µM,–
COc1cc2c(NCCN3CCCCC3)nc3c4cc5c(cc4ccc3c2cc1OC)OCO5 [NTD-313],+ (n = 2) (+ is 20-50%),> 111 µM,–

SMILES,Top1 cleavage (Top1),IC50 (Tdp1),"TOP1 inhibition (Top1; graded relative to CPT at 1 μM, Table 7)"
CN(C)CCn1c(=O)c2cc(O)ccc2c2ccc3ccccc3c21 [TWL-25A],+ (+ is 20-50%),> 111 µM (2×) and 74.1 µM and 75.9 µM,–
CN(C)CCn1c(=O)c2c3c(ccc2c2ccc4cc5c(cc4c21)OCO5)OCO3 [TWL-191],–,> 111 µM,–
COc1cc2ccc3c4cc(OC)c(OC)cc4c(=O)n(CCN(C)C)c3c2cc1OC [TWL-48],–,> 111 µM,–
COc1ccc2ccc3c4ccccc4c(=O)n(CCN(C)C)c3c2c1 [TWL-33],+ (+ is 20-50%),> 111 µM,–
CCN(CC)CCNc1nc2c3cc4c(cc3ccc2c2cc(OC)c(OC)cc12)OCO4 [NTD-305],+ (+ is 20-50%),> 111 µM,–
COc1cc2c(cc1O)c(=O)n(CCN(C)C)c1c3cc4c(cc3ccc21)OCO4 [TWL-113],+ (+ is 20-50%),> 111 µM (2×) and 65 µM,–
CN(C)CCn1c(=O)c2cc3c(cc2c2ccc4cc5c(cc4c21)OCO5)OCO3 [TWL-37],+ (+ is 20-50%),27.6 ± 19 µM,–
COc1cc2c(=O)n(CCN(C)C)c3c4cc5c(cc4c(OC)cc3c2cc1OC)OCO5 [TWL-246],++ (++ is 50-75%),–,–
CN(C)CCn1c(=O)c2ccccc2c2ccc3cc(Br)ccc3c21 [TWL-53],–,> 111 µM,–
COc1cc2c(SCCN(C)C)nc3c4cc5c(cc4ccc3c2cc1OC)OCO5 [NTD-403],++ (n = 2) (++ is 50-75%),> 111 µM,–
CCC(CO)Nc1nc2c3cc4c(cc3ccc2c2cc(OC)c(OC)cc12)OCO4 (centres unmarked) [NTD-363],+ (+ is 20-50%),–,–
COc1cc2c[n+](CCCn3ccnc3)c3c4cc5c(cc4ccc3c2cc1OC)OCO5 [NTD-192],–,81.3 ± 14.5 µM,–
COc1cc2c(NCCCN3CCN(C)CC3)nc3c4cc5c(cc4ccc3c2cc1OC)OCO5 [NTD-312],+ (+ is 20-50%),> 111 µM,–
COc1cc2c(NCCN3CCCC3)nc3c4cc5c(cc4ccc3c2cc1OC)OCO5 [NTD-307],–,56.2 µM,–
CCN(CC)CC[n+]1cc2cc(OC)c(OC)cc2c2ccc3cc4c(cc3c21)OCO4 [NTD-195],–,> 111 µM,–
CCN(CC)CCSc1nc2c3cc4c(cc3ccc2c2cc(OC)c(OC)cc12)OCO4 [NTD-404],++ (++ is 50-75%),> 111 µM,–
COc1cc2c(NCCN)nc3c4cc5c(cc4ccc3c2cc1OC)OCO5 [NTD-325],0 (0 is inactive),72 µM and 107 µM,–
COc1cc2c(=O)n(CCN(C)C)c3c4ccccc4ccc3c2cc1OC [TWL-44],+ (+ is 20-50%),> 111 µM,–
COc1cc2c(NCCN3CCNCC3)nc3c4cc5c(cc4ccc3c2cc1OC)OCO5 [NTD-311],–,> 111 µM,–
COc1cc2c[n+](CCN(C)C)c3c4cc5c(cc4ccc3c2cc1OC)OCO5 [NTD-191],–,64.2 ± 23.9 µM,–
"COc1cc2c(=O)n(CCN(C)P3(=O)OCCO3)c3c4cc5c(cc4ccc3c2cc1OC)OCO5 [Compound 57, 2,3-dimethoxy-12-(2-(methyl(2-oxido-1,3,2-dioxaphospholan-2-yl)amino)ethyl)-[1,3]dioxolo[4′,5′:4,5]benzo[1,2-c]phenanthridin-13(12H)-one]",–,–,"++ (++, between 50% and 75% activity)"
COc1cc2c(NCCCN(C)C)nc3c4cc5c(cc4ccc3c2cc1OC)OCO5 [NTD-301],0 (0 is inactive),38 µM,–
COc1ccc2c(c1O)c(=O)n(CCN(C)C)c1c3cc4c(cc3ccc21)OCO4 [TWL-211],+ (+ is 20-50%),11 µM and 30 µM and 72 µM,–
COc1cc2c(ccc3c4cc(OC)c(OC)cc4c(=O)n(CCN(C)C)c23)cc1O [TWL-125],+ (+ is 20-50%),65 µM and 50 µM,–
CN(C)CCn1c(=O)c2cc3c(cc2c2ccc4ccccc4c21)OCO3 [TWL-40],+ (+ is 20-50%),18.2 ± 1.15 µM,–
COc1cc2c(NCCN3CCOCC3)nc3c4cc5c(cc4ccc3c2cc1OC)OCO5 [NTD-309],+ (n = 2) (+ is 20-50%),> 111 µM,–
